Results reported in patent publication US9333257B2, “FGFR1 antibodies and treatment of cancer” (Agency for Science, Technology and Research, priority 2011, dated 2016).

Experiments:
Format in all cases: cell-based, human
MG63 cells [1] = experiment: Cell growth, viable cell count by GUAVA Viacount; details: 48 hours; for repression of cell growth: 50 μM
Description: The cells were seeded in triplicates at 20,000 cells/cm^2 in 24-well plates, except MDA-MB468 which was plated at 100,000 cells/cm^2. […] 48 hours after treatment, the viable cell numbers were counted using the GUAVA Viacount Program and used to plot the graph (FIG. 6). The ‘starting’ cell numbers which were seeded for the assay were also included. hFOB is the normal cell control for osteosarcoma cells, while MCF10A is the normal cell control for breast cancer cells.
We tested the effectiveness of these reagents to block the growth of MG63 using GUAVA Viacount system.
The effect of these antibodies on the growth of MG63 cells were examined by GUAVA EasyCyte flow cytometry system.
Rabbit IgG and mouse IgG were the vehicle control for IMB-R1 and IMB-R1 mAbs, respectively. The viable cells were counted by GUAVA Viacount system. The statistics was done by Student's t test.

MG63 cells [2] = experiment: FGF2 stimulated MG63 cell growth (GUAVA)
Description: MG63 cells were treated with 20 ng/ml FGF2, IMB-R1 (1:250 dilution), or pretreated with IMB-R11 hour before addition of FGF2. Cells without the above treatments were the control. After 2 days, the viable cell numbers were counted using GUAVA system as mentioned before.
Cells were first treated with increasing doses of U0126 for 48 hours. The viable cell numbers were then analysed by GUAVA system. Next, cells were treated with 20 ng/ml FGF2 in the presence or absence of the optimal dose of U0126 determined from the first assay, before the cell counting was performed.

Caspase 3 = Caspase 3 activity assay (Biovision kit) in MG63; details: 24 hours
Description: We further examined the effect of IMB-R1 on Caspase 3 activity using an assay kit from Biovision. Caspase 3 is activated at the early stage of apoptosis, so it is used as a common marker of apoptosis. Staurosporine, known as the inducer of caspase 3 activity, was used in this assay as the positive control. We first treated MG63 cells with increasing dose of staurosporine for 24 hours to determine the working dose.
We next examined whether FGF2 regulated cell apoptosis and IMB-R1 blocked its effect. MG63 cells were treated with IMB-R1 (1:250) 1 hour before FGF2 (20 ng/ml). 24 hours later, cells were harvested and stained with Annexin-PI. Thereafter, cells were analysed by flow cytometry (FIG. 11B). The percentage of positive cells in each population was plotted in the graphs (FIG. 11C). We further examined the effect of IMB-R1 and FGF2 on Caspase 3 activity using the assay kit from Biovision. Caspase 3 is activated at the early stage of apoptosis, so it is used as a common marker of apoptosis. The dose of reagents and the time point chosen were same to those in Annexin-PI staining assay.

Saos-2 = experiment: Cell viability via GUAVA, fold change vs cells plated; details: two day treatment
Description: (§1) Old media was first removed and 3 ml of fresh media added. IMBR1 and rabbit IgG were added to achieve desired dosage. PD166866 (Sigma-Aldrich, USA) and SU5402 (Merck, Germany) were dissolved in dimethyl sulfoxide (DMSO; Sigma-Aldrich, USA) and added to master mix of media to achieve desired concentration. Additional DMSO was added such that total volume of chemicals added was constant.
(§2) Cells were grown in 24-well plate with 500 μl of media at a seeding density of 20,000 cells/cm^2, except for MDA-MB-468 which were seeded at a density of 100,000 cells/cm^2. Each well of cells were then collected via trypsinization with 200 μl of trypsin-EDTA (Invitrogen, USA) and neutralized with 200 μl of media. 1 μl of GUAVA Viacount Flex dye (Guava Technologies, USA) was added to each well. Quantification of viable cells were performed as per manufacturer's instructions.
(§3) To determine the effect of inhibiting FGFR1 signaling on cell viability in osteosarcoma cells, Saos-2 and hOS were treated with varying concentrations of FGFR tyrosine kinase inhibitors PD166866 (Panek et al., 1998) and SU5402 (Mohammadi et al, 1997). The control groups of respective cell lines were treated with equivalent volume of DMSO, as DMSO is the vehicle for both chemical inhibitors. Cell viability was measured via GUAVA and fold change calculated to compare changes in number of cells after two day treatment and number of cells plated. A fold change greater than one indicated an increase in number of cells while a fold change less than one indicated a decrease in number of cells compared to number of cells plated.
To determine the effect of IMBR1 on cell viability, GUAVA was performed after two day treatment with varying amount of IMBR1 or rabbit IgG as control. Rabbit IgG was used as control as IMBR1 is raised in rabbit. Half maximal inhibitory constant (IC50) was then determined.

hOS = experiment: as above; details: two day treatment
Description: as §1, §2, §3

MG63 cells [3] = experiment: Annexin V-FITC / PI staining apoptosis assay
Description: Thus we treated MG63 with 1:250 dilution of IMB-R1 or equal volume of rabbit IgG for 24 hours and then stained the cells with Annexin V-FITC and Propidium Iodide (PI) (BD Biosciences). Annexin V binds to phosphatidylserine which is only present on the outer layer of cell membrane at the early stage of apoptosis. Therefore positive staining of Annexin V indicates early apoptosis. PI is unable to penetrate the intact cell membrane. Only when the membrane breaks down at the late stage of apoptosis, PI can enter and stain the cell. After staining, the cell population was analyzed by BD FACS Array system. The viable cells were negative of either Annexin V-FITC or PI staining, which was shown in Q3; the early apoptotic cells were positive of Annexin V-FITC but negative of PI staining, which was shown in Q4; the late apoptotic or dead cells were positive of both staining, which was shown in Q2. The percentage of positive cells in each population was plotted in the graphs.
We next examined whether FGF2 regulated cell apoptosis and IMB-R1 blocked its effect. MG63 cells were treated with IMB-R1 (1:250) 1 hour before FGF2 (20 ng/ml). 24 hours later, cells were harvested and stained with Annexin-PI. Thereafter, cells were analysed by flow cytometry (FIG. 11B). […]
Cells were treated with 25 μM U0126 for 24 hours before the apoptosis of the cells was analysed by Annexin-PI staining.

| Molecule | repression of cell growth (MG63 cells [1]) [%] | fold change of cell number vs cells plated (Saos-2; 10 μM) | fold change of cell number vs cells plated (Saos-2; 100 μM) | fold change of cell number vs cells plated (hOS; 10 μM) | fold change of cell number vs cells plated (hOS; 100 μM) | also measured |
| --- | --- | --- | --- | --- | --- | --- |
| CCN(CC)CCCCNc1ncc2cc(-c3cc(OC)cc(OC)c3)c(NC(=O)NC(C)(C)C)nc2n1 [PD173074] |  |  |  |  |  | IC50 (MG63 cells [1]; Homo sapiens, MG-63, read-out: concentration able to induce 50% cell growth inhibition): 10 to 25 µM |
| FGF2: recombinant human FGF2 (R&D Systems), FGF ligand that activates FGFR1 signalling |  |  |  |  |  | increase of cell proliferation (MG63 cells [2]; 20 ng/ml FGF2, 2 days): 1.9 folds; caspase 3 activity (Caspase 3; FGF2 20 ng/ml alone): slightly decreased |
| Cc1c[nH]c(/C=C2\C(=O)Nc3ccccc32)c1CCC(=O)O [SU5402] | ~50 | 2.14 | 0.9 | 5.2 | 0.6 |  |
| CN[C@@H]1C[C@H]2O[C@@](C)([C@@H]1OC)n1c3ccccc3c3c4c(c5c6ccccc6n2c5c31)C(=O)NC4 [staurosporine] |  |  |  |  |  | Caspase 3 activation (Caspase 3; 15 nM): sufficient to activate Caspase 3 |
| COc1cc(OC)cc(-c2cc3cnc(N)nc3nc2NC(=O)NC(C)(C)C)c1 [PD166866] | ~50 | 1.7 | 0.4 | 4.2 | 0.7 |  |
| N#CC(=C(/N)Sc1ccccc1N)/C(C#N)=C(\N)Sc1ccccc1N [U0126] |  |  |  |  |  | cell number relative to cells without treatment (MG63 cells [1]; 25 μM): ~50%; FGF2 stimulated cell growth (MG63 cells [2]; 25 μM U0126, 20 ng/ml FGF2): completely suppressed; cell apoptosis (MG63 cells [3]; 25 μM, 24 hours (control 7.49%)): ~100%; viability at 25 µM (MG63 cells [3]; Homo sapiens, MG-63, 24 h, read-out: viable cells): < 1% |
